Active and inactive are the calls of the source.

In test [1] the target is T1, Heat shock factor protein 1 (Mus musculus, UniProt P38532).
T1 sequence (P38532 whole entry): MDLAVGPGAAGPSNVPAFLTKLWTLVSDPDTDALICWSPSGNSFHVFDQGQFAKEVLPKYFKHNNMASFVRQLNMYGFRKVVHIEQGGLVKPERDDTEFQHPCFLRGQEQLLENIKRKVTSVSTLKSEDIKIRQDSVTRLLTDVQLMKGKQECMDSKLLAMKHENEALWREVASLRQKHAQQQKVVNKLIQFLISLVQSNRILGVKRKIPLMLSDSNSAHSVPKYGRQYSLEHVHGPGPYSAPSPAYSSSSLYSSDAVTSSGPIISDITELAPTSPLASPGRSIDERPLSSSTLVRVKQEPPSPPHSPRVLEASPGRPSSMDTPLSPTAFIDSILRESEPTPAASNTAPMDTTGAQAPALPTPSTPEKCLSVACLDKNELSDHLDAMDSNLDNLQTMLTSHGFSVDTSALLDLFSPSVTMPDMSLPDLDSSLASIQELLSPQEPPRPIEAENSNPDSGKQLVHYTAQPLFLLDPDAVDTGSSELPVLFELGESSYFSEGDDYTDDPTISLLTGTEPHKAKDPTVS
As to the kind of experiment: decrease of HSF1-responsive luciferase luminescence – cell-based, NIH3T3, dose retest, confirmation (AID 2382).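 Note: NIH3T3 fibroblasts with HSF1-driven luciferase reporter stressed by proteasome inhibitor MG132; luminescence from HSF1-driven luciferase expression after 8 hours of MG132 stress.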 Format: functional.

The nature of test [2]: HPDE-C7 pancreatic duct cell viability loss – fluorescence, HTS (AID 430). Conditions: Homo sapiens. It is filed as functional, cell-based.
Test [3] in a line: viability loss of HPDE-C7K cells – cell-based, fluorescence, HTS, primary screen (AID 431). It is filed as functional. The conditions noted are these: Homo sapiens.
A further test has as its system HEK293. Kind of test: EBV LMP1 TES2 canonical NF-kB signalling blockers – cell-based, HEK293, luciferase, cherry-pick, dose response (AID 588343). It is filed as functional. Conditions: Homo sapiens.
The target of test [4] is Peroxisome proliferator-activated receptor gamma/Nuclear receptor coactivator 2 (Homo sapiens, UniProt P37231). It is filed as functional.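 Note: agonist potency for raising coactivator recruitment to the receptor.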
Peroxisome proliferator-activated receptor gamma/Nuclear receptor coactivator 2, sequence (P37231 whole entry): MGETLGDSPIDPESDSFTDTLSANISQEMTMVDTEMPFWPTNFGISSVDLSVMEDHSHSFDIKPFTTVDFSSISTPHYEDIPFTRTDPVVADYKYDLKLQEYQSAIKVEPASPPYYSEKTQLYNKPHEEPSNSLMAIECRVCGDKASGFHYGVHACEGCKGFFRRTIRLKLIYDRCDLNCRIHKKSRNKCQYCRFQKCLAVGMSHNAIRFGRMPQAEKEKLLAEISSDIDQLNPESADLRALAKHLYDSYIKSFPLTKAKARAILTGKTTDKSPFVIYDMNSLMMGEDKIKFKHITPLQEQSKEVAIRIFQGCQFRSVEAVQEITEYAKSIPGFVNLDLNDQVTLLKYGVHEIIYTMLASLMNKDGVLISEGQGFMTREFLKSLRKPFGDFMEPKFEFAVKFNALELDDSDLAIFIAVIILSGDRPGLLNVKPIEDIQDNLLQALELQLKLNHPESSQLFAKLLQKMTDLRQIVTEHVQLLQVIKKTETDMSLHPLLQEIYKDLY
Peroxisome proliferator-activated receptor gamma/Nuclear receptor coactivator 2, sequence (Q15596 whole entry, further chain): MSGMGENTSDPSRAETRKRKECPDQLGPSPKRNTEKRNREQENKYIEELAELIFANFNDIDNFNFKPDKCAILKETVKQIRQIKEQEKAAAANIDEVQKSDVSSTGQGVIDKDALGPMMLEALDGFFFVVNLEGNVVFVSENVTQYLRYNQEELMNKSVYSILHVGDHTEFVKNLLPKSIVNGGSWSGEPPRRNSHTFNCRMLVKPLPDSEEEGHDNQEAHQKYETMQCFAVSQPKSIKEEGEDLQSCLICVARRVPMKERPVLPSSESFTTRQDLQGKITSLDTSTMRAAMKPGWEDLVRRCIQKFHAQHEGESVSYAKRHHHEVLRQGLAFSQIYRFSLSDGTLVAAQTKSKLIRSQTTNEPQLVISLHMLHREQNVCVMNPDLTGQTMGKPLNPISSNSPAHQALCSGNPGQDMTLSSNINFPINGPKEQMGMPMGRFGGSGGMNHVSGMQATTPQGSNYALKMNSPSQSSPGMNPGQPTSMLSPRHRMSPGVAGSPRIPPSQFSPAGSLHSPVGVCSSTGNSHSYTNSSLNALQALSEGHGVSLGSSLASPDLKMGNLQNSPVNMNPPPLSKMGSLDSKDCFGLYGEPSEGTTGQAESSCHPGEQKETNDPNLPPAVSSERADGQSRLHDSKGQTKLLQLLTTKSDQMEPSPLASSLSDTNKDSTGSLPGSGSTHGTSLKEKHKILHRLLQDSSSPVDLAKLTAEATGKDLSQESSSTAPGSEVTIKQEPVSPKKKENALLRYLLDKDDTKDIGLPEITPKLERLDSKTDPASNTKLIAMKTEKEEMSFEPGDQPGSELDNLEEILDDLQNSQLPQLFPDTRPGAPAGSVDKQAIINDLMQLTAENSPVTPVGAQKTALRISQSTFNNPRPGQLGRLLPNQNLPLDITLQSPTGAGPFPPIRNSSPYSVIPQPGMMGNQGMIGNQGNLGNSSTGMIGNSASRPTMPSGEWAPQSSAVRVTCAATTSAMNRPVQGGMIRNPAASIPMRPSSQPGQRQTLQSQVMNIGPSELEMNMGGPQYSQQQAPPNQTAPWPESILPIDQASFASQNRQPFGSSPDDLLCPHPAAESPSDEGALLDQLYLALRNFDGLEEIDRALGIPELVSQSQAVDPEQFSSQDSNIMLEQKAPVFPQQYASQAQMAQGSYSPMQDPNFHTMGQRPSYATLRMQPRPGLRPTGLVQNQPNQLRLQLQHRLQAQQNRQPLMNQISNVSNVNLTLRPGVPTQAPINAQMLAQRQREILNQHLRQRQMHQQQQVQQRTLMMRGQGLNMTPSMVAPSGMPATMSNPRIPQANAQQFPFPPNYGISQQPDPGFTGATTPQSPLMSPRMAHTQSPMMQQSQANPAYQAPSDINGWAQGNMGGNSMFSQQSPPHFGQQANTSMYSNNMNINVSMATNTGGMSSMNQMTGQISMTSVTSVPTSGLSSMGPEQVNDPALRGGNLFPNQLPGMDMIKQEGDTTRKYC
In test [5] the target is Peroxisome proliferator-activated receptor gamma/Nuclear receptor coactivator 1 (Homo sapiens, UniProt P37231). It is filed as functional.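 Note: agonist potency as compounds enhance coactivator SRC-1 recruitment to PPARgamma.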
Peroxisome proliferator-activated receptor gamma/Nuclear receptor coactivator 1, sequence (P37231 whole entry): as the sequence (P37231 whole entry) above
Peroxisome proliferator-activated receptor gamma/Nuclear receptor coactivator 1, sequence (Q15788 whole entry, further chain): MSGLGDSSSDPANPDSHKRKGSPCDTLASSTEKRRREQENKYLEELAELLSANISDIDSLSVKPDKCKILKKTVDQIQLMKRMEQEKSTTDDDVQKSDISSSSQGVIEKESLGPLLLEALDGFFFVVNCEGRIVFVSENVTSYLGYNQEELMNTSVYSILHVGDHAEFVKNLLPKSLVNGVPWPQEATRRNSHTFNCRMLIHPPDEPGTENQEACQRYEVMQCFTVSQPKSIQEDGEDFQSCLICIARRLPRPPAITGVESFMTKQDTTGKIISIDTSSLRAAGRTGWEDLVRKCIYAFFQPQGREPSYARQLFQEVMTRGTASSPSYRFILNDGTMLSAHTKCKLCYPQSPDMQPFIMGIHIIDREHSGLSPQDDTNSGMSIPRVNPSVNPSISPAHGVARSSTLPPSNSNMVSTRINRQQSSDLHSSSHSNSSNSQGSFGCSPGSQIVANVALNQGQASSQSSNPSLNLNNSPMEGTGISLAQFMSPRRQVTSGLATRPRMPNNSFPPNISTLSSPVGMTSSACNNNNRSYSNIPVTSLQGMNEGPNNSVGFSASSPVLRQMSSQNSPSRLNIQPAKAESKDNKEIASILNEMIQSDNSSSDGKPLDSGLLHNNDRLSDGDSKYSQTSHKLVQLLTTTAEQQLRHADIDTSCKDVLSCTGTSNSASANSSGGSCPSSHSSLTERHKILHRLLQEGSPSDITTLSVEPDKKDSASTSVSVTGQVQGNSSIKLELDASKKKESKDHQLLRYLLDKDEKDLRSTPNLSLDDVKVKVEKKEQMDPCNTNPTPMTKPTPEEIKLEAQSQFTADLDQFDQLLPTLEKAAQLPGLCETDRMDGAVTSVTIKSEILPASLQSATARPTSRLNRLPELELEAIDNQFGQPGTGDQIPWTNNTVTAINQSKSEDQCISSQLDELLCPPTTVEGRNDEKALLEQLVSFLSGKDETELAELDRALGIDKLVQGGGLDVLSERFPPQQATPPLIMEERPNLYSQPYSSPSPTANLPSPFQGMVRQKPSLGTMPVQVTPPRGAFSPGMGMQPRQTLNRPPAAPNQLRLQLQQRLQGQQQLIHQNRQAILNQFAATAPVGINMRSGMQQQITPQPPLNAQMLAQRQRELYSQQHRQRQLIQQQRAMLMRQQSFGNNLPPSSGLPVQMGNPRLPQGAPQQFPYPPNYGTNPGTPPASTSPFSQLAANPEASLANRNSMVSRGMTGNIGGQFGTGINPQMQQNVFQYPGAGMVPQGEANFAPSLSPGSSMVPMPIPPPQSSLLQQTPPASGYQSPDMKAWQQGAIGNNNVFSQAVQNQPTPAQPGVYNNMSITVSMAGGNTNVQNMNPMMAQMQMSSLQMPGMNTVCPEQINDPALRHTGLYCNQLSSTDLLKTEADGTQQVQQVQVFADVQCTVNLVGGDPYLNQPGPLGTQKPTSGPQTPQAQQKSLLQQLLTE
The target of test [6] is Peroxisome proliferator-activated receptor gamma/Nuclear receptor coactivator 3 (Homo sapiens, UniProt P37231). Format: functional.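 Note: agonist potency for raising coactivator recruitment to the receptor.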
Test [7] has as its target T2, Rac GTPase-activating protein 1 (Homo sapiens, UniProt Q9H0H5).
T2 sequence (Q9H0H5 whole entry): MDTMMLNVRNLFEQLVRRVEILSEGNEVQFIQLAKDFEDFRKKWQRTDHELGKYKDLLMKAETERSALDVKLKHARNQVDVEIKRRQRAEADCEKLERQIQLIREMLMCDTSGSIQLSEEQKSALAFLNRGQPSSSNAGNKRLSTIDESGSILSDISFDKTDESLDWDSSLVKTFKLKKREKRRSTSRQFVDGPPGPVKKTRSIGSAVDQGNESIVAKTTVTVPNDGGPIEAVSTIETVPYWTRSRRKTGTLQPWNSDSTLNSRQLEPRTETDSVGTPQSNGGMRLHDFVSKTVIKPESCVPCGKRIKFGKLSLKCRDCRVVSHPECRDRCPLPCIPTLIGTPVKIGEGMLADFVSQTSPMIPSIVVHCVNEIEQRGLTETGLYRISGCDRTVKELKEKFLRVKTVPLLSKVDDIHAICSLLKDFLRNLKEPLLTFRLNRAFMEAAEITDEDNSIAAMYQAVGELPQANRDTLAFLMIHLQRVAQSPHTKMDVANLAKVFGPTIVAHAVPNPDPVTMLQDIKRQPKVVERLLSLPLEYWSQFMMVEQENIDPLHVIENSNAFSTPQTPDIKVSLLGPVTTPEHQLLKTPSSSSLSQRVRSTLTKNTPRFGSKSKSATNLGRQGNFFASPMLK
Kind of test: blockers of MgcRacGAP-driven Rac1 GTP hydrolysis – biochemical, ADP Hunter fluorescence, primary and confirmatory, confirmation (AID 624330). It is filed as functional.

For the next test, the target named is T3, NADPH oxidase 1 (Homo sapiens, UniProt Q9Y5S8).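 Note: Cell-based assay with luminescence read-out, IC50 derived from inhibitor dose-response curves; intracellular ROS from endogenous NOX1 in intact HT29 colon cancer cells; potency of inhibitors that lower the ROS luminescence signal.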
T3 sequence (Q9Y5S8 whole entry): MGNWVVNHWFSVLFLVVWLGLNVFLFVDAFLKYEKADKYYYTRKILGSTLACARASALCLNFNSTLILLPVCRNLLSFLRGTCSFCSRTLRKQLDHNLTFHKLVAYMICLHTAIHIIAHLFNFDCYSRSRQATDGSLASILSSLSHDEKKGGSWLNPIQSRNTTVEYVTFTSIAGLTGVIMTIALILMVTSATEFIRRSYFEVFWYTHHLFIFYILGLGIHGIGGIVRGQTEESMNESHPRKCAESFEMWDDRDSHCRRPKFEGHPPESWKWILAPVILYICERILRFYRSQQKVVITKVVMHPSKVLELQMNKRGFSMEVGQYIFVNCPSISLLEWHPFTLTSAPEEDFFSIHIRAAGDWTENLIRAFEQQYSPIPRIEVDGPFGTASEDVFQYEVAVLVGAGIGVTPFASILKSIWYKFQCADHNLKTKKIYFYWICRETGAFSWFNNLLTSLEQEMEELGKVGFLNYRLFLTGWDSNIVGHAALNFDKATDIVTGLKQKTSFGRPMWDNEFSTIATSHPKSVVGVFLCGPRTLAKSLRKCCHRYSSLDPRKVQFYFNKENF
It is filed as functional, cell-based.

For another test, the target named is T4, Estrogen receptor (Homo sapiens, UniProt P03372).
T4 sequence (P03372 whole entry): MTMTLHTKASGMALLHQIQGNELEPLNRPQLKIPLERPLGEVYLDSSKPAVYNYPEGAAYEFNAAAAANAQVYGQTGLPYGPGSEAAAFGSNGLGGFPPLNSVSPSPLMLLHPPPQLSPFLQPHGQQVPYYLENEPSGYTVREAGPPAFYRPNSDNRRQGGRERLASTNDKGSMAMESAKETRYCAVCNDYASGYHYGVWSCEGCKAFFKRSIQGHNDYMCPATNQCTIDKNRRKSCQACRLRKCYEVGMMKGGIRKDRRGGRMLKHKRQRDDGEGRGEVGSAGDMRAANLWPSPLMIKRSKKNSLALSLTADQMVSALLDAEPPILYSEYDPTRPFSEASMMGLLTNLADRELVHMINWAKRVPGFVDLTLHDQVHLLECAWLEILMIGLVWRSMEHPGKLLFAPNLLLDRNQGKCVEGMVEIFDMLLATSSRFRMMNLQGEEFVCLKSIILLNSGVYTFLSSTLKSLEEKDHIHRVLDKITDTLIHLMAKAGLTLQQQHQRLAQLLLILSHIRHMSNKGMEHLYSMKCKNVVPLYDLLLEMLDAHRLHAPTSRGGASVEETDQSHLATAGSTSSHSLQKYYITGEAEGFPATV

Test [8] concerns the target T5, Estrogen receptor beta (Homo sapiens, UniProt Q92731).
Test [9] deals with T5, Estrogen receptor beta. Kind of test: blockers of SRC-3 recruitment to ERβ – biochemical, ELISA, streptavidin-HRP readout, orthogonal assay, confirmation (AID 1060). A general note: ELISA stands for enzyme-linked immunosorbent assay.
Test [10] has as its system Streptococcus sp. 'group A'. As to the kind of experiment: Streptococcus pyogenes SK(-)GAS viability under kanamycin – luminescence, BacTiterGlo, confirmation, counter-screen for streptokinase expression inhibitor project, dose response (AID 1900). Format: functional, organism-based.
The next test concerns the target T6, Streptokinase A (Streptococcus pyogenes serotype M1, UniProt P10520).
T6 sequence (P10520 whole entry): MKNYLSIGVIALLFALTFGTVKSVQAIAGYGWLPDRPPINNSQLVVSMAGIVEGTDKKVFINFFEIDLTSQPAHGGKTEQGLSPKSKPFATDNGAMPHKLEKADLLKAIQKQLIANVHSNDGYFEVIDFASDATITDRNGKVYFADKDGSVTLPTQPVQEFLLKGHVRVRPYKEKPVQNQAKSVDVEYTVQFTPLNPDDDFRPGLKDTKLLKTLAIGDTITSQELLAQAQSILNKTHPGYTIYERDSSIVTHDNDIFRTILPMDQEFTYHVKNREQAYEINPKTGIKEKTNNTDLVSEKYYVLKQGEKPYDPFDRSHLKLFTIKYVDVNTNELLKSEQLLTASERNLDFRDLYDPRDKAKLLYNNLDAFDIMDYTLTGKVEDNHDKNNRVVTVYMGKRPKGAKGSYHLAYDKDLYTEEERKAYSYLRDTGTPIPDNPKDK
As to the kind of experiment: viability-normalized secreted streptokinase activity reduction – plasminogen activation absorbance, OD405, dose response (AID 1914).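 Note: secreted streptokinase activity via plasminogen activation per viability signal from cell pellet.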 Format: functional, Streptococcus pyogenes M1 GAS.

The next test has as its system Streptococcus. Kind of test: GAS UMAA2166 growth inhibition – luminescence, BacTiterGlo, counter-screen for streptokinase expression inhibitor project, dose response (AID 1915).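 Note: potency for reduction of bacterial viability or growth.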 Format: functional, organism-based. (In general: Counterscreens check selectivity or assay interference.)
Test [11] can be described thus: Luminescence Cell-Based Dose Retest to Confirm Inhibitors of Cancer Stem Cells. [Related pubchem assays (depositor defined):AID2717, AID2721]. Conditions: Homo sapiens. It is filed as functional.
The next test concerns the target Nonstructural protein 1 (Influenza A virus, UniProt Q194T2). It is filed as functional, Influenza A virus (A/California/07/2009(H1N1)).
For another test, the system named is INS1. Kind of test: INS-1E survival protection against cytokine death – cell-based, luminescence, retest, dose response (AID 449756).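 Note: cell death triggered by IL-1 beta plus TNF-alpha plus IFN-gamma mixture; protective hits raise ATP signal compared with cytokine alone wells.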 Conditions: Rattus norvegicus. Format: functional.
Test [12] in a line: viability of uninfected HEp-2 cells – cell-based, HTS, cytotoxicity control for RSV inhibitor project, dose response (AID 2410). It is filed as functional. The conditions noted are these: human respiratory syncytial virus.
Test [13] deals with T7, Corticotropin-releasing factor receptor 2/Corticotropin-releasing factor-binding protein (Homo sapiens, UniProt P24387+Q13324).
T7 sequence (Q13324 whole entry): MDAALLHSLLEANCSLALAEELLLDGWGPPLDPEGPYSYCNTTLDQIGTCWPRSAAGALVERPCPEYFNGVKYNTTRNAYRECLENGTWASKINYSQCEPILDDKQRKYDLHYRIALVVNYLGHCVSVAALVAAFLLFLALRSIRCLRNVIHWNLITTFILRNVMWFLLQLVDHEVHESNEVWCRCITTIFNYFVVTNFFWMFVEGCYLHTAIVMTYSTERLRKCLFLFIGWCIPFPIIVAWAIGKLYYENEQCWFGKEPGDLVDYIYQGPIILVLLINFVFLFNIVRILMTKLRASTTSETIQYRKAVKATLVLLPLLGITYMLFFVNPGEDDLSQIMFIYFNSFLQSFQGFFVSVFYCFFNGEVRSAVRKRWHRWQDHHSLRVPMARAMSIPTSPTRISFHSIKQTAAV
T7 sequence (P24387 whole entry): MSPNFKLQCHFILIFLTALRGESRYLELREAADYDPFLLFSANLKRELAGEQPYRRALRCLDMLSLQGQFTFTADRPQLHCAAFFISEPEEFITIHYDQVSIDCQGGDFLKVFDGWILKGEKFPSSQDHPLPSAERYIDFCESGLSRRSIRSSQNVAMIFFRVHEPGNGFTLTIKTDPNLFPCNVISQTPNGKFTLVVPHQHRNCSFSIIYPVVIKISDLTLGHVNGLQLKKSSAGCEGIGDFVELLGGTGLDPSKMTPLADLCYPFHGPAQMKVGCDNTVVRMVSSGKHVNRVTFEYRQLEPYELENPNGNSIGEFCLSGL
Kind of test: Dose Response confirmation of uHTS hits for small molecule antagonists of the CRF-binding protein and CRF-R2 receptor complex. Conditions: read-out: IC50_Mean. It is filed as functional.

Test [14] has as its target T7, Corticotropin-releasing factor receptor 2/Corticotropin-releasing factor-binding protein. Kind of test: activators of CRF receptor 2 with binding protein – uHTS hits, confirmation (AID 602473). It is filed as functional. Conditions: read-out: EC50_Mean.
Test [15] is described as follows: blockers of CRF-binding protein–CRF-R2 complex – cell-based, uHTS hits, 384-well, dose response (AID 651639). It is filed as functional, Homo sapiens. Conditions: read-out: IC50_Mean.

T5 sequence (Q92731 whole entry): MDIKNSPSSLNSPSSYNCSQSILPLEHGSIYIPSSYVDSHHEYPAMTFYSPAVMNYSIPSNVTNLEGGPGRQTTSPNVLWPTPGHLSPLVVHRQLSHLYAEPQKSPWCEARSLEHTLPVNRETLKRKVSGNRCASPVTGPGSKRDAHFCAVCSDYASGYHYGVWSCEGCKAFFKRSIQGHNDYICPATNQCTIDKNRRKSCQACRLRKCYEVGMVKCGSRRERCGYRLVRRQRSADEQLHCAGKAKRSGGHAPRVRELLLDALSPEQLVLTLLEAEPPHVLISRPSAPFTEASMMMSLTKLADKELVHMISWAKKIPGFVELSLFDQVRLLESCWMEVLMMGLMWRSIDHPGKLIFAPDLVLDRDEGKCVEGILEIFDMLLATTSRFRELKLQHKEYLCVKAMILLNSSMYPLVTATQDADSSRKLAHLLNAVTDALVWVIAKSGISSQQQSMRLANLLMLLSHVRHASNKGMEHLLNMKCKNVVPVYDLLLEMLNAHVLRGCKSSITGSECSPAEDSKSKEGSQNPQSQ
Nonstructural protein 1, sequence (Q194T2 whole entry): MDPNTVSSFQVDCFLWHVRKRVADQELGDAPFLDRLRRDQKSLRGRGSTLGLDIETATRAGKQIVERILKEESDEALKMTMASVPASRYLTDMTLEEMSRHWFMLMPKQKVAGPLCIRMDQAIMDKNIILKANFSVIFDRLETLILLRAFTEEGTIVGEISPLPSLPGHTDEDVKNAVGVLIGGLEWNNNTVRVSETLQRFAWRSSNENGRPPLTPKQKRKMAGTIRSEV

For orientation: AC50 means the concentration at which the activity in the assay is half-maximal. On to `Cc1nn(-c2ccccc2)c(Cl)c1C(=O)N1CCN(c2ncnc3c2cnn3-c2ccccc2)CC1`, for which the EC50 in test [1] was 5.06 µM (active); in test [2], 8.56 µM (active); in test [3], 9.4 µM (active). For the same molecule, the AC50 with HEK293 is 5.24 µM (active).

For the molecule `CCOCCCNCc1ccc(OC)c(OC)c1`, the EC50 in test [4], in test [5] and in [6] was > 79.4 µM (not active) throughout.

On to `CCn1c(SCC(=O)Nc2ccc(N(C)C)cc2)nnc1-c1cccc(C)c1`, for which the EC50 in test [1] is > 195 µM (not active); in test [2] it was > 20 µM (not active); in test [3], 15.8 µM (active). Besides, in test [7], the IC50 was 65.2 µM (active).

In the case of `COc1ccc(C(=O)NCC(=O)N=Nc2c(O)n(Cc3ccccc3)c3ccccc23)cc1OC`, the EC50 in [4], in [5] and in [6] was > 79.4 µM (not active) in each case.

In the case of `CC(=O)Nc1ccccc1OC(=O)c1sc2cc(Cl)ccc2c1Cl`, the IC50 on NADPH oxidase 1 is given as > 17 µM (not active).

Regarding `COc1ccc2c(c1)c(=O)oc1cc3oc(C)c(C)c3cc12`, the results for the IC50 on Estrogen receptor, on Estrogen receptor beta [8] and at Estrogen receptor beta [9] were 6.9 µM (active), 12.6 µM (active) and 0.205 µM (not active), respectively.

Take `CCc1ccc2nc(O)c(C3C(C#N)=C(N)Oc4c3ccc3cccnc43)cc2c1` (stereo not drawn): the EC50 in [10] was 16.1 µM (active); on Streptokinase A it was > 150 µM (not active); with Streptococcus it was > 150 µM (not active). The IC50 at Estrogen receptor was 11.3 µM (active); on Estrogen receptor beta [8], 12 µM (active); against Estrogen receptor beta [9] it was 2.79 µM (not active); on Nonstructural protein 1 it was 32.6 µM (active). Also, the figures for the AC50 (in [11]; in the test on INS1) were 6.07 µM (active) and 1.46 µM (active), respectively.

For orientation: CC50 means the concentration that lowers cell viability or growth by half. In the case of `Cc1ccccc1-c1nnc(S)n1/N=C/c1c(C)nn(-c2ccccc2)c1C`, the CC50 in test [12] was 29.1 µM (active). Also, the IC50 in [13] is 8.4 µM (active); in test [15] it was 12.3 µM (active); in the test “cells”, 11.3 µM (active). Besides, in [14], the EC50 was > 53 µM (inactive).

Consider `COc1cccc(-c2nc(-c3ccccc3)c(-c3ccccc3)[nH]2)c1`, for which the IC50 at NADPH oxidase 1 is on record as > 17 µM (not active).

The record behind these values is ChEMBL document CHEMBL1201862, “PubChem BioAssay data set” (2004).
